Patent publication EP4803513A1, “SUBSTITUTED QUINAZOLINE COMPOUND, PREPARATION METHOD THEREFOR, PHARMACEUTICAL COMBINATION THEREOF, AND USE THEREOF” (Hongyun Biotech Co., Ltd., priority 2023, dated 2025)

Columns and labels:
GA0119 = assay: In vitro activity test of gastric cancer PDX (CellTiter-Glo), GA0119; assay type: cell-based; conditions: PDX GA0119, gastric cancer with high BRK expression, 168 hours
Experimental: (§1) Patient-derived xenograft (PDX) models are methods in which tumor tissue from cancer patients is transplanted into severely immunodeficient mice for culture and passaging, and used to test compound activity. The compounds of the present invention were tested using three PDX samples (GA0119, GA6208, and GA6871, all being gastric cancers with high BRK expression, all cultured in DMEM).
(§2) Preparation of PDX model tumor cell suspension: PDX model animals were housed in the animal facility, and tumor growth was observed weekly. When the PDX model tumor grew to an appropriate size, the tumor was removed and minced using sterile surgical instruments. Collagenase B digestion solution was added, and digestion was performed at 37°C for approximately 2 hours. Undigested tissue was removed by passing through a cell strainer. The strainer was washed with PBS 3-5 times, and the cell pellet was washed with PBS 4 times. Tumor cells were resuspended in culture medium. ACK lysis buffer was used to remove red blood cells when necessary.
(§3) Cell plating: The above cell suspension was taken and counted. The cell suspension concentration was adjusted to 5.75 × 10^5 cells/mL by dilution with culture medium. 3.5 mL of the cell suspension and 6.5 mL of 1% methylcellulose solution were mixed thoroughly. 100 µL of the cell suspension was added to each well of a 96-well plate (including compound-treated cell plates and T0 control cell plates), followed by incubation overnight under conditions of 37°C, 5% CO2, and 95% humidity.
(§4) Day 0 cell viability reading: The CellTiter-Glo® reagent and T0 control cell culture plate were equilibrated at room temperature for 30 minutes. 100 µL of CellTiter-Glo® reagent was added to each well. The plate was shaken on an orbital shaker for 20 minutes to ensure complete cell lysis. The cell culture plate was then equilibrated at room temperature for 10 minutes, and the chemiluminescence signal was read using an EnVision plate reader.
Day 0 compound treatment: The test compound (stock concentration 10 mM) was taken out and equilibrated at room temperature for use. The compound treatment cell plate was taken out. The test compound solution was added to the corresponding wells. […]
Day 7 cell viability reading: The CellTiter-Glo® reagent and cell culture plate were equilibrated at room temperature for 30 minutes. […] The cell plate was then placed at room temperature for 10 minutes to stabilize the luminescence signal, and the luminescence value was read using an EnVision plate reader.
Data processing: Data were analyzed using GraphPad Prism 9.0 software. A nonlinear sigmoidal curve regression was used to fit the data and generate a dose-response curve, from which the IC50 value was calculated. […] Lum represents the luminescence value.

GA6871 = assay: In vitro activity test of gastric cancer PDX (CellTiter-Glo), GA6871; assay type: cell-based; conditions: PDX GA6871, gastric cancer with high BRK expression, 168 hours
Experimental: as §1, §2, §3, §4
(§5) Day 0 compound treatment: The test compound (stock concentration 10 mM) was taken out and equilibrated at room temperature for use. The compound treatment cell plate was taken out. The test compound solution was added to the corresponding wells. The highest concentration for each compound was 30 µM, with 3-fold serial dilutions, 9 concentration points, each concentration point in triplicate (DMSO concentration normalized). The final concentration of DMSO in each cell well was 0.3%. The dosed 96-well plate was then placed in an incubator at 37°C, 5% CO2, and 95% humidity for continued culture for 168 hours.
(§6) Day 7 cell viability reading: The CellTiter-Glo® reagent and cell culture plate were equilibrated at room temperature for 30 minutes. 100 µL of CellTiter-Glo® reagent was added to each well. The plate was shaken on an orbital shaker for 20 minutes to lyse the cells. The cell plate was then placed at room temperature for 10 minutes to stabilize the luminescence signal, and the luminescence value was read using an EnVision plate reader.
(§7) Data processing: Data were analyzed using GraphPad Prism 9.0 software. A nonlinear sigmoidal curve regression was used to fit the data and generate a dose-response curve, from which the IC50 value was calculated. Cell survival rate (%) = (Lumtest compound - Lummedium control) / (Lumcell control - Lummedium control) × 100%. Lum represents the luminescence value.

WT-BaF3 cells = assay: Cell antiproliferative activity assay (CCK-8), WT-BaF3 (broad-spectrum cytotoxicity); assay type: cell-based; conditions: 72 h; WT-BaF3 cells (IL-3 supplemented), CCK-8, 3 days incubation
In short: (§8)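 Growth inhibition over 3 days, with compound serially diluted 3-fold from a 10 µM top concentration. Cells seeded at 100,000 cells/mL; WT-BaF3 medium carried 10% WEHI supernatant as the IL-3 source. Viability read by CCK-8 OD450 after 2-4 h; IC50 from blank-subtracted curve fit.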

[1] = system: gastric cancer xenograft model GA6208; assay: In vivo efficacy evaluation of gastric cancer PDX (GA6208); parameters: species or system Balb/c nude mice; conditions: for Day 35 tumor volume (mean ± SEM): I-21 100 mg/kg oral gavage twice daily, I-81 100/80 mg/kg oral gavage twice daily, cisplatin 3 mg/kg tail vein once weekly, in mm³ (unit assumed); for Day 35 TGI (%): tumor growth inhibition vs vehicle control, same dosing as tumor volume
From the text: Tumor tissue was collected from tumor-bearing mice of the gastric cancer xenograft model GA6208, cut into tumor pieces of 2-3 mm in diameter, and subcutaneously inoculated at the right front scapular region of Balb/c nude mice. When the mean tumor volume of the tumor-bearing mice reached approximately 150 mm^3 (100-200 mm^3), the mice were randomly divided into 4 groups of 8 mice each, and administered as follows: vehicle control (0.5% CMC-Na solution, oral gavage, twice daily), compound I-21 (100 mg/kg, oral gavage, twice daily), compound I-81 (100 mg/kg for the first 8 days, then 80 mg/kg for the subsequent 27 days, oral gavage, twice daily), and cisplatin (3 mg/kg, tail vein injection, once weekly), for a total of 35 days.

BRK-BaF3 cells = assay: Cell antiproliferative activity assay (CCK-8), BRK-BaF3; assay type: cell-based; conditions: 72 h, CCK-8, 3 days incubation
In short: as §8

GA6208 = assay: In vitro activity test of gastric cancer PDX (CellTiter-Glo), GA6208; assay type: cell-based; conditions: PDX GA6208, gastric cancer with high BRK expression, 168 hours
Experimental: as §1, §2, §3, §4, §5, §6, §7

T47D cells = assay: Cell antiproliferative activity assay (CCK-8), T47D; assay type: cell-based; conditions: Homo sapiens, 72 h, breast cancer cell line T47D, incubation for 3 days
Experimental: BRK-BaF3, WT-BaF3, WEHI cell line, and breast cancer cell line T47D were cultured using RPMI 1640 Basal medium or DMEM (Dulbecco's Modified Eagle Medium) (Shanghai Peiyuan Biotechnology, L220KJ), supplemented with 10% FBS (Gibco, REF 10099-141C) and 1% P/S (Shanghai Peiyuan Biotechnology, S110JV), in an incubator (Thermo 3020) at 37°C with 5% CO2. Cell viability was above 95%. Cells were passaged at a 3:1 ratio every 3-4 days. For WT-BaF3 cells, WEHI cells were first cultured, and their culture supernatant was filtered through a 0.22 µm filter. This supernatant was added at 10% to the regular culture medium to supplement IL-3 required for WT-BaF3 cell proliferation, which served as the culture medium for WT-BaF3. For testing, cells were first collected and counted, then prepared into a cell suspension at 100,000 cells/mL and plated at 100 µL per well. Drug concentrations started from 10 µM and were serially diluted 3:1. After incubation for 3 days, 20 µL of CCK-8 detection reagent (Targetmol C005) was added to each well. After incubation for 2-4 hours, OD450 was measured using a microplate reader (Varioskan LUX, Thermo Scientific). After subtracting the blank background, the curve was fitted and the IC50 was calculated using XLfit software.
In addition, the following table exemplarily lists the IC50 values of some compounds of the present invention against T47D cells.

With `Cc1nn(CCO)cc1Nc1ncc2cc(-c3cccnc3)cc(C(C)C)c2n1` [I-21] the IC50 (GA0119) was 1140 nM, the IC50 (GA6871) was 2130 nM and the IC50 (WT-BaF3 cells) was greater than 2500 nM. The “Day 35 tumor volume (mean ± SEM)” value [1] was 782.88±71.02, the “Day 35 TGI (%)” value [1] was 44.59% and the IC50 (BRK-BaF3 cells) was no more than 20 nM. For the same compound, the IC50 (GA6208) was 620 nM.
Compound `Cc1nn(CCO)cc1Nc1ncc2cc(-c3nccnc3C)cc(C(C)C)c2n1` [I-81] has an IC50 (GA0119) of 4540 nM, an IC50 (GA6871) of 7130 nM and an IC50 (WT-BaF3 cells) greater than 2500 nM. The “Day 35 tumor volume (mean ± SEM)” value [1] was 595.03±30.63, the “Day 35 TGI (%)” value [1] was 57.89% and the IC50 (BRK-BaF3 cells) was no more than 20 nM. It also gave an IC50 (GA6208) of 3920 nM.
`Cc1nn(CCO)cc1Nc1ncc2cc(-c3nccnc3C)cc(C(F)(F)F)c2n1` [I-109] showed an IC50 (GA6871) of 17000 nM, an IC50 (WT-BaF3 cells) greater than 2500 nM and an IC50 (BRK-BaF3 cells) of no more than 20 nM. For the same compound, the IC50 (GA6208) was 8530 nM.
Compound `COc1c(P(C)(C)=O)ccc(Nc2ncc3cc(-c4nccnc4C)cc(C4CC4)c3n2)c1F` [II-69] has an IC50 (GA0119) of 8010 nM, an IC50 (T47D cells) of no more than 500 nM and an IC50 (GA6871) of 9280 nM. For the same compound, the IC50 (WT-BaF3 cells) was greater than 2500 nM, the IC50 (BRK-BaF3 cells) was no more than 20 nM and the IC50 (GA6208) was 5630 nM.
In the case of `N.N.[Cl][Pt][Cl]` [cisplatin, reference compound], the IC50 (GA0119) is reported as 1380 nM, the IC50 (GA6871) is reported as 4280 nM and the “Day 35 tumor volume (mean ± SEM)” value [1] is reported as 1250.42±137.64. For the same compound, the “Day 35 TGI (%)” value [1] was 11.50% and the IC50 (GA6208) was 298 nM.
